Laboratory results as given in patent US11590110B2, “Compositions and methods for reactivating latent immunodeficiency virus using a GSK-3 inhibitor” (priority 2017, dated 2023).
“Also recorded” adds a separate entry of the source. Like-named read-outs stand apart in the source and are kept apart here.

Tests used:
[1] = tested on: latent HIV-GFP reporter virus in resting CD4+ T cells from human tonsil; assay: Example 6: lymphoid tissue model of HIV latency, HIV-GFP reporter, flow cytometry; format: cell-based; details: 48 hours; for latency reversal by first-generation LRAs: bryostatin-1 10 nM, JQ1 100 nM, panobinostat 50 nM
[2] = tested on: latent HIV in CD4+ T cells of HIV-infected patients on suppressive anti-retroviral therapy; assay: Example 7: reversal of HIV latency in patient CD4+ T cells, extracellular viral RNA by digital droplet PCR
GSK-3 = details: cited from earlier work
CD4+ T cells [3] = assay: Example 5: surface expression of activation markers CD69 and CD25, flow cytometry; format: cell-based, human; details: 48 hours
Experimental: (§1) Freshly isolated PBMCs or CD4^+ T cells were stained for viability, using the fixable viability dye Zombie violet (1:50, Biolegend) according to the manufacturer's recommendation. Surface staining was performed with the following antibodies at 1:100 dilutions: CD3-PE-Cy7, CD4-APC-Cy7, CD69-FITC, CD25-PE (all 1:100, Biolegend), and Glut-1-Ax647 (BD Bioscience, 566580) in staining buffer for 20 min on ice and cells were fixed in 1% PFA-containing PBS. All flow analysis was performed on the LSRII (BD Biosciences) using FlowJo software (v.10.4.2). Color compensations were performed using single-stained samples for each of the fluorochromes used. Data were analyzed using FlowJo software (TreeStar, San Carlos, Calif.).

[4] = tested on: latent HIV-1 in blood CD4+ T cells from infected individuals on suppressive ART; format: cell-based
CD4+ T cells [5] = assay: Example 5: cytokines release assay (V-PLEX pro-inflammatory panel); format: cell-based, human; details: 48 hours; culture supernatant of CD4+ T cells
Experimental: Supernatant was collected from the treated cell cultures described above and stored at −80° C. for later analysis. Supernatant cytokine levels were determined using a V-PLEX Proinflammatory Panel 1 (human) Kit (#K15049D-1) and a V-PLEX IL-17A Gen. B (human) (#K151WMD) from Meso Scale Discovery, following the manufacturer's protocol. The assay was done on undiluted supernatant samples in order to increase the sensitivity of the assay.

CD4+ T cells [6] = assay: Example 5: CD4+ T cell viability, Cell Titer Blue assay; format: cell-based, human; details: 48 hours; for CD4+ T-cell viability: SB-216763 and tideglusib 10/100/1000 nM, bryostatin-1 10 nM
Experimental: 25 μl from each well/treatment were incubated with Cell Titer Blue reagent (Promega) for 3 to 4 hours at 37° C. The assay is based on the ability of living cells to convert a redox dye (resazurin) into a fluorescent end product (resorufin). Colorimetric analysis of treated cells was done with a Perkin Elmer EnSpire 2300 Multimode plate reader set to detect fluorescence (Ex:579 nm/Em:584 nm).

CD4+ T cells [7] = assay: Example 5: lactate production analysis; format: cell-based, human
Experimental: Subsequently, media of the treated samples were tested for production of L-lactated using a Glycolysis Cell-Based Assay Kit (Cayman Chemical). This test measures the quantity of formazan, an artificial chromogenic dye that results from the reduction of tetrazolium salts in the presence of NADH in the culture media. Colored formazan absorbs between 490 and 520 nm and can be detected by a plate reader. Since lactate dehydrogenase catalyzes the reaction between NAD+ and lactate, yielding pyruvate and NADH, which directly reduces the tetrazolium salt, the quantity of formazan produced is proportional to the quantity of L-lactate in the culture medium, and is thus an indirect measurement of glycolysis. In order to determine specific L-Lactate concentration, a standard curve was obtained analyzing absorbance of known concentration of L-lactate as indicated in the manufacturer's protocol.

patient CD4+ T cells = details: human, 48 h
NF-κB (p65) = assay: Example 5: NF-κB p65 nuclear translocation, western blot of nuclear extracts; format: cell-based, human; details: 250 nM inhibitor with 1 μM tideglusib
CD4+ T cells [8] = assay: Example 5: GLUT1 surface expression, flow cytometry; format: cell-based, human; details: 2 or 24 hours; 1 μM tideglusib; CD4+ T cells of three HIV-negative donors
Experimental: as §1
Changes to the metabolism of resting CD4^+ T-cells by tideglusib were studied. […] […].

[9] = tested on: patient-derived CD4+ T cells; details: as shown in PCT/US2016/64614; cited from earlier work
tonsil CD4+ T cells = assay: Example 6: cell viability in tonsil CD4+ T cell cultures, Cell-Titer Blue; details: SB216763 10-1,000 nM, PMA 200 nM, panobinostat 50 nM; 48 hours
[10] = tested on: patient-derived CD4+ T cells; details: as shown in PCT/US2016/64614; cited from earlier work; remark: listed apart in the source
NK cells = assay: Example 5: NK cell viability and cytotoxic effector functions; format: cell-based, human; details: 48 hours; 50 nM
Experimental: Density centrifugation using a Ficoll-Hypaqua gradient was performed to purify PBMCs from continuous-flow centrifugation leukapheresis product. Subsequently, cells were plated in 96-well U-bottom plated in complete RPMI, which was supplemented with 10 ng/ml recombinant IL-15 (R&D systems), treated with LRAs or vehicle controls (DMSO) and incubated at 37° C., 5% CO2 for 48 h. To assay NK cell functionality, cells were analyzed by flow cytometry. Briefly, 1×10^6 cells/200 ul were stained with FITC anti-CD107 antibodies (1:50, BD Biosciences), mixed with 1×10^5 K562 cells and incubated at 37° C., 5% CO2 for 1 h. Then, in order to enhance intracellular cytokine staining, protein transport was blocked with Brefeldin A (Sigma-Aldrich) and golgi stop (BD Biosciences) according to the manufacturer instructions and the cells were incubated at 37° C., 5% CO2 for another 5 h. Afterwards, cells were spun down (5 min, 330×g, RT), the supernatant was removed and the cells were stained using Zombie violet (1:50, Biolegend) according to the manufacturer protocol. Subsequently, cells were stained for surface proteins staining with the following antibodies: APC/Cy7 anti CD3 (1:100, Biolegend), APC anti CD14 (1:100, Biolegend), APC anti CD19 (1:100, Biolegend), PE/Cy7 anti CD56 (1:100, BD Biosciences), Alexa Fluor 700 anti CD16 (1:100, Biolegend), PE anti CD7 (1:50, Thermo Fisher Scientific) for 15 min at room temperature. Next, cells were permeabilized and fixed using the Foxp3/Transcription Factor Fixation/Permeabilization Concentrate and Diluent kit (eBioscience) and stained intracellularly with PerCP/Cy5 anti IFN-γ (1:50, BD Bioscience) in FOXP3 perm/wash buffer for 1 h at 4° C. Finally, cells were washed and fixed in 1% paraformaldehyde/PBS, and subjected to flow cytometry analysis on a LSRII (BD Biosciences). Data were obtained using FlowJo software (Treestar). Samples were gated for singlets, live, CD3 negative, CD14/CD19 negative and CD7 positive cells as previously described (York, Milush). CD16high/CD56dim, CD16dim/CD56high cells were considered for analysis of IFN-γ and CD107a positivity. All gates were defined, based on fluorescence minus one (FMO) samples.

CD8+ T cells = assay: Example 5: CD8 T-cell viability and cytotoxic effector functions; format: cell-based, human; details: 48 hours; 50 nM
Experimental: After drug treatment, human PBMCs were cultured in complete RPMI in the presence of CD107a-BV650 (1:50, 328637, BioLegend) or CD107a-FITC antibodies (1:50, 555800, BD Bioscience) and PMA/ionomycin (50 ng/ml and 1 uM) dor 3.5 hours, adding Brefeldin A and Monensin (eBioscience) for the last hour. Cells were subsequently stained for viability using the viability dyes eFluor 506, (eBioscience) according to the provided protocol. After surface marker staining with the following antibodies (all at 1:100 dilution): CD3-APC-H7 (560176; BD Biosciences), CD8-V450 (560347; BD Biosciences), CD45RA-APC (17-0458; eBioscience), and CCR7-PE-Cy7 (557648; BD Biosciences), cells were permeabilized and fixed using the Foxp3/Transcription Factor Fixation/Permeabilization Concentrate and Diluent kit (eBioscience). Intracellular staining was performed with IFN-γ-PerCP-Cy5.5 antibody (1:100, 560704, BD Bioscience) in FOXP3 perm/wash buffer for 1 h at 4° C. After washing and fixation of the cells in 1% paraformaldehyde/PBS, cells were analyzed by flow cytometry. Final data stems from having gated on CD8hi- and CD8lo-expressing T cells.

[11] = 10 nM, 48 hours, relative to untreated control

In the case of `Cn1cc(C2=C(c3ccc(Cl)cc3Cl)C(=O)NC2=O)c2ccccc21` [SB-216763, 3-(2,4-Dichlorophenyl)-4-(1-methyl-1H-indol-3-yl)-1H-pyrrole-2,5-dione], the “induction of the GFP reporter over unstimulated” value ([1]; doses between 100-1000 nM) is reported as 90 fold, the “latency reversing activity, in words” value ([2]; at equivalent doses) is reported as “comparable activity” and the “subjects that did not respond” value ([2]; highest dose) is reported as 3 of 14. The IC50 (GSK-3) was […], the “surface expression of the activation markers CD69 or CD25” value (CD4+ T cells [3]) was “no increase” and the “virus-associated HIV-1 mRNA, mean fold-change” value [4] was […]. For the same compound, the “production and release of pro-inflammatory cytokines” value (CD4+ T cells [5]) was “does not induce T cell activation or cytokine production”, the “CD4+ T-cell viability” value (CD4+ T cells [6]) was “does not reduce viability” and the “L-lactate in the culture media” value (CD4+ T cells [7]; 24 hours of treatment) was “did not result in an increase of L-lactate”. The “toxicity based on cell-titer blue testing” value (patient CD4+ T cells) was “Neither tideglusib nor SB216763 induced toxicity”.

For `CC(C)n1nc(-c2cc3cc(O)ccc3[nH]2)c2c(N)ncnc21` [PP242], the “effect of co-treatment on tideglusib-mediated p65 nuclear translocation” value (NF-κB (p65)) was “less reduction in nuclear translocation” and the “GLUT1 surface expression over the untreated control” value (CD4+ T cells [8]) was “did not significantly alter expression of GLUT1”.

For `CCC/C=C/C=C/C(=O)O[C@H]1/C(=C/C(=O)OC)C[C@H]2C[C@H]([C@@H](C)O)OC(=O)C[C@H](O)C[C@@H]3C[C@H](OC(C)=O)C(C)(C)[C@](O)(C[C@@H]4C/C(=C/C(=O)OC)C[C@H](/C=C/C(C)(C)[C@]1(O)O2)O4)O3` [bryostatin-1], the “latency reversal by first-generation LRAs” value [1] is listed as “only minimal latency reversal”, the “activation marker expression with known latency-reversing agent” value [9] is listed as “increase in activation marker expression” and the CD69 surface expression (CD4+ T cells [3]; 10 nM) is listed as “markedly increased”. The “virus-associated HIV-1 mRNA, mean fold-change” value [4, 11] was 574.4 fold, the “virus-associated HIV-1 mRNA, median value” [4, 11] was 5.086 fold and the “production and release of pro-inflammatory cytokines” value (CD4+ T cells [5]) was “release of IFN-γ, IL-6, IL-13”. For the same compound, the “CD4+ T-cell viability” value (CD4+ T cells [6]) was “minimal decrease”.

In the case of `O=CC[C@@H](O)[C@H](O)[C@H](O)CO` [2-DG, 2-deoxy-D-glucose], the “L-lactate production in treated and untreated samples” value (CD4+ T cells [7]; 50 mM, 24 hours) is reported as “dramatically reduced L-lactate production”.

In the case of `Cc1sc2c(c1C)C(c1ccc(Cl)cc1)=N[C@@H](CC(=O)OC(C)(C)C)c1nnc(C)n1-2` [JQ-1], the “latency reversal by first-generation LRAs” value [1] is reported as “only minimal latency reversal”.

In the case of `CCOC(=O)C1=C(N)Oc2ccc(Cl)cc2C1C(C#N)C(=O)OCC` (stereo not drawn) [SC79, 2-amino-6-chloro-α-cyano-3-(ethoxycarbonyl)-4H-1-benzopyran-4-acetic acid ethyl ester], the “release of virions in the culture supernatant” value ([4]; 48 hours, CD4+ T cells from five HIV-positive participants, SC79 10/100/1000 nM) is reported as “increased release of virions”.

With `CCCCCCCCCCCCCC(=O)O[C@@H]1[C@@H](C)[C@@]2(O)[C@@H](C=C(CO)C[C@]3(O)C(=O)C(C)=C[C@@H]23)[C@@H]2C(C)(C)[C@]12OC(C)=O` [PMA, phorbol 12-myristic13-acetate] the “cell viability relative to untreated cells” value (tonsil CD4+ T cells) was “clear toxicity; also recorded: toxicity was observed”.

For `Cc1[nH]c2ccccc2c1CCNCc1ccc(/C=C/C(=O)NO)cc1` [panobinostat], the “toxicity of known latency-reversing agent” value [10] is given as “highly toxic”, the “reduction of total NK cells” value (NK cells) is given as “approximately 60%” and the “cell death of CD4+ T cells” value (CD4+ T cells [6]; 50 nM) is given as about 50%. The “reduction of total CD8+ T cells” value (CD8+ T cells) was “approximately 40%”.
